What was measured:
[1] = target: recombinant gp120 and recombinant CD4 (UniProt P01730+P03375); test: Inhibition of the reaction between recombinant gp120 and recombinant CD4; type: binding; settings: complete inhibition only at high concentrations; read-out: concentration for complete inhibition of the gp120-CD4 reaction
Protocol: However, ATA is an inefficient inhibitor of the reaction between recombinant gp120 and recombinant CD4, and complete inhibition of this reaction can be observed only at high concentrations of ATA (≈1 mg/ml).

peptide (492-518) = peptide (492-518) (Human immunodeficiency virus type 1 BH10, UniProt P03375); test: Inhibition by ATA of reaction between peptide and homologous antibodies (FIG. 1B); type: binding, HIV-1 BH 10; settings: ATA 50 μg/ml
Protocol: (§1) FIG. 1 comprises four bar graphs concerning the interaction of aurintricarboxylic acid (ATA) with the V3 hypervariable loop of gp120 and with distinct peptides derived from the sequence of gp160. FIG. 1A: Inhibitory effect of ATA (50 μg/ml) on the reaction of antibodies to peptides from the sequence of HIV-1 gp160 with gp120 or gp160. gp120-coated wells were used for antisera to peptides from gp120 and gp160-coated wells were used with antisera to peptides from gp41. FIG. 1B: Inhibitory effect of ATA (50 μg/ml) on the reaction between antibodies to peptides from gp120/gp41 and homologous peptides. FIG. 1C: binding of ATA to wells coated with distinct peptides from the sequence of gp160, as determined by subsequent binding of anti-ATA antibodies. FIG. ID: Net electric charge of peptides from the sequence of gp160, determined by subtracting the number of aspartic (D) and glutamic (E) residues from the sum of lysine (K) and arginine (R) residues present in distinct segments of the gp160 sequence. The horizontal dotted line indicates the boundary between non-significant and significant inhibition, established from three times repeated experiments.
(§2) Wells of 96 well polystyrene plates (Immulon 2, Dynatech Laboratories, Inc., Chantilly, Va.) were coated with synthetic peptides (200 μl; 20μg/ml in 0.1 M Tris-HCl, pH 8.8) overnight at 20° C. The peptides were from the sequence of HIV-1, clone BH 10 envelope glycoproteins gp120 and gp41 (Neurath, A. R., Strick, N., and Lee, E. Y. S. (1990), "B-cell Epitope Mapping of Human Immunodeficiency virus (HIV-1) Envelope Glycoprotein with Long (19 to 36-residue) Synthetic Peptides", J. Gen. Virol., 71., 85-95) and from V3 hypervariable loops of 21 distinct HIV-1 isolates (clones) Neurath, A. R., and Strick, N., (1990), "Confronting the Hypervariability of an Immunodominant Epitope Eliciting Virus Neutralizing Antibodies from the Envelope Glycoprotein of the Human Immunodeficiency Virus Type 1 (HIV-1)", Molec. Immunol., 27, 539-549. The latter peptides corresponded to full-length V3 loops generated by disulfide bonds between N- and C- terminal cysteine residues. After washing with 0.14 M NaCl, 0.01 M Tris, 0.02% NaN3 (TS), the wells were postcoated with a mixture of bovine serum albumin (BSA) and gelatine (10 and 2.5 mg/ml, respectively) in TS. […]
(§3) To define sites on gp120/gp41 reacting with ATA, the inhibitory effect of this compound was studied by RIA tests using gp120- and gp160-coated wells, respectively, and antisera (final dilutions 1:150) against synthetic peptides from the entire sequence of gp120/gp41 of HIV-1 BH 10. […] Attached rabbit IgG was detected using ^125 I-labeled anti-rabbit IgG, as described before (Neurath et al., 1990, J. Gen. Virol., 71, 85-95). […]

[2] = target: T1, V3 hypervariable loop peptide (303-338) (Human immunodeficiency virus type 1 BH10, UniProt P03375); test: as above; type: binding, HIV-1 BH 10; settings: ATA 50 μg/ml
T1 construct: cut from Env gp160
Protocol: as §1, §2, §3

[3] = target: peptide (845-862) from gp41 (Human immunodeficiency virus type 1 BH10, UniProt P03375); test: as above; type: binding, HIV-1 BH 10; settings: ATA 50 μg/ml
Protocol: as §1, §2, §3

peptide (331-361) = peptide (331-361) (Human immunodeficiency virus type 1 BH10, UniProt P03375); test: as above; type: binding, HIV-1 BH 10; settings: ATA 50 μg/ml
Protocol: as §1, §2, §3

H9 cells = test: Toxicity for cells; type: cell-based; settings: at the concentrations used
Excerpt: (§4) The combined effects of AZT and ATA, and other compounds shown to be effective in Table 1, hereinbelow, against HIV-1 are also contemplated by the present invention, since synergistic drug combinations would offer means for alleviating toxicity due to AZT, observed in clinical settings. Contemplated combinations include, for example, AZT+ATA, AZT+chlorin e6; AZT+deuteroporphyrin IX, 2,4(4,2) hydroxyethyvinyl; and AZT+meso-tetra(4-carboxyphenyl)porphine.

MT-2 cells = test: Toxicity for cells; type: cell-based; settings: at the concentrations used
Excerpt: as §4

U937 cells = test: Toxicity for cells; type: cell-based; settings: at the concentrations used
Excerpt: as §4

**Q.** Which IC100 [1] does the source give for O=C(O)C1=CC(=C(c2ccc(O)c(C(=O)O)c2)c2ccc(O)c(C(=O)O)c2)C=CC1=O [substance #122, aurintricarboxylic acid] here?
**A.** ~1000 µg/mL

**Q.** And the “inhibition of reaction of peptide with homologous antibodies” value (“inhibition … with homologous antibodies” below) (peptide (492-518))?
**A.** did not inhibit the reaction between this peptide and homologous anti-peptide antibodies

**Q.** And the “inhibition … with homologous antibodies” value [2]?
**A.** most dramatically inhibited

**Q.** What about the “inhibition … with homologous antibodies” value [3] of the same compound?
**A.** Inhibition was also observed

**Q.** What about the “inhibition … with homologous antibodies” value (peptide (331-361)) of the same compound?
**A.** Inhibition was also observed

**Q.** And the “toxicity for H9 cells” value (H9 cells)?
**A.** lack of toxicity

**Q.** What about the “toxicity for MT-2 cells” value (MT-2 cells) of the same compound?
**A.** lack of toxicity

**Q.** What about the “toxicity for U937 cells” value (U937 cells) of the same compound?
**A.** lack of toxicity

— patent US5230998A, “Method for the prescreening of drugs targeted to the V3 hypervariable loop of the HIV-1 envelope glycoprotein gp 120” (priority 1991, dated 1993)
